Data reported in PMC6274095 (Molecules, 2016).

Assays:
[1] = system: neonatal rat cardiomyocytes (CMs); assay: Cardiotoxicity evaluation, xCELLigence RTCA cardio impedance; type: cell-based; conditions: 10 μM
Procedure: To assess the potential adverse risk in cardiomyocytes, we administrated neonatal rat cardiomyocytes (CMs) with cardamonin, tested at 10 μM (22-fold of the IC50 value). Amiodarone (10 μM), an antiarrhythmic drug that delays cardiac repolarization through inhibiting hERG potassium channels [31], was performed as a positive cardio toxic control [32]. […] Amplitude represented the height of the print. […] Cell index represented cell number and viability. […] Cardiotoxicity test of cardamonin was performed with neonatal rat cardiomyocytes that obtained from 24 h Sprague-Dawley rats [47]. Compound treatment and cardiomyocytes impedance profiles were monitored as previously reported by Yu et al. [48]. Briefly, CMs cells were seeded into cardio E-Plate 96 that pre-coated with matrigel. Thereafter, cell culture medium was refreshed every day until CMs presented stable beating patterns. For compound treatment, 10× chemical dose solutions were prepared and added to the cells. The cell impedance was captured using xCELLigence RTCA cardio instrument.

TRPV1 channel = target: T1, TRPV1 channel (Homo sapiens, UniProt Q8NER1); assay: Calcium mobilization assay in HEK293/TRPV1 cells (2APB-stimulated); type: cell-based
T1 construct: host or cells: HEK293
Procedure: (§1) Recombinant HEK293/TRPA1, HEK293/TRPV1, and HEK293/TRPV4 cell lines were generated by HD Bioscience Co. Ltd (Shanghai, China) following standard procedures as reported previously. HEK293/TRPA1 and HEK293/TRPV4 cells were cultured in complete DMEM medium with 100 μg/mL hygromycin B, 50 U/mL penicillin, and 100 μg/mL streptomycin. HEK293/TRPV1 cells were cultured with 350 μg/mL zeocin and 5 μg/mL blasticidin in complete DMEM culture medium.
(§2) Calcium influx upon TRPA1 activation by agonist stimulation was measured using calcium mobilization assay as reported previously. Briefly, cells were plated into 96-well microplates (matrigel coated) at a density of 3.5 × 10^4 cells per well. The plates were incubated at 37 °C with 5% CO2 overnight to allow the cells to recover. On the following day, replace cell culture medium with loading buffer containing Fluo-4 AM (MD, CA, USA), kept the plate at 37 °C for 30 min. Test compound was added to cells 10 min prior to the onset of TRAP1 agonist cinnamaldehyde, TRPV1 agonist 2APB, or TRPV4 agonist GSK1016790A. The calcium signal was captured with Flexstation II reader (MD, CA, USA) at 37 °C for TRPA1 and TRPV1 activation. The reader chamber was set at 24 °C for TRPV4 activation.

hTRPA1 cation channel [2] = target: T2, hTRPA1 cation channel (Homo sapiens, UniProt O75762); assay: Calcium mobilization assay in HEK293/TRPA1 cells (cinnamaldehyde-stimulated); type: cell-based
T2 construct: host or cells: HEK293
Procedure: To discover a novel TRPA1 antagonist, a small library containing 156 natural chemicals were evaluated for their inhibitory effects on the TRPA1 ion channel at 10 μM (Figure 1A). The compound list was released previously. The cells were pre-incubated with cinnamaldehyde (CA) by its EC80 (90 μΜ) for 10 min and then treated with tested compounds. […] The time-course profile of the calcium signal was recorded (Figure 1B) and the peak value was used for determination of the maximum calcium mobilization.
as §1, §2

TRPV4 ion channel = target: T3, TRPV4 ion channel (Homo sapiens, UniProt Q9HBA0); assay: Calcium mobilization assay in HEK293/TRPV4 cells (GSK1016790A-stimulated); type: cell-based
T3 construct: host or cells: HEK293
Procedure: TRPV4 is another critical TRP ion channel that plays a role in thermal and mechanical hyperalgesia. TRPV4 shares similarity with TRPA1 [24, 25]. […] Firstly, the activating effect of the TRPV4 agonist GSK1016790A was tested. […] Thereafter, cardamonin was incubated with HEK293/TRPV4 cells at 90 μM, 30 μM, and 10 μM prior to 83 nM GSK1016790A stimulation. HEK293/TRPV4 cells treated in the absence of the test compound was the negative control and 330 μM ruthenium red was performed as the positive control.
as §1, §2

HEK293 cells = assay: HEK293 cell viability, Cell Titer-Glo assay; type: cell-based; conditions: 24 h
Procedure: In order to rule out the possibilities of false positives, we tested whether cardamonin induced cytotoxicity in HEK293 cells. The cells were seeded into 96-well plate and incubated in the presence or absence of cardamonin. HEK293 cells were incubated with cardamonin for 24 h. […] HEK293 cell viability was determined based on quantification of ATP using Cell Titer-Glo® luminescent Assay kit (Promega, Madison, WI, USA), which signals the presence of metabolically-active cells. Briefly, HEK293 cells were seeded into 96-well plates at a cell density of 3.5 × 10^4 cells per well, the plates were kept at 37 °C with 5% CO2 overnight. On the following day, cardamonin was added to the cells from a top concentration of 90 μΜ. The cells treated in the absence of the test compound were the negative control. After incubated for 24 h, Cell Titer-Glo reagent was added to the cells and Luminescence was acquired on EnVision™ 2100 Multilabel Reader (PerkinElmer, Santa Clara, CA, USA).

hTRPA1 cation channel [3] = target: T2, hTRPA1 cation channel; conditions: HEK293/TRPA1 activation; cited from earlier work

T2 sequence (O75762 whole entry): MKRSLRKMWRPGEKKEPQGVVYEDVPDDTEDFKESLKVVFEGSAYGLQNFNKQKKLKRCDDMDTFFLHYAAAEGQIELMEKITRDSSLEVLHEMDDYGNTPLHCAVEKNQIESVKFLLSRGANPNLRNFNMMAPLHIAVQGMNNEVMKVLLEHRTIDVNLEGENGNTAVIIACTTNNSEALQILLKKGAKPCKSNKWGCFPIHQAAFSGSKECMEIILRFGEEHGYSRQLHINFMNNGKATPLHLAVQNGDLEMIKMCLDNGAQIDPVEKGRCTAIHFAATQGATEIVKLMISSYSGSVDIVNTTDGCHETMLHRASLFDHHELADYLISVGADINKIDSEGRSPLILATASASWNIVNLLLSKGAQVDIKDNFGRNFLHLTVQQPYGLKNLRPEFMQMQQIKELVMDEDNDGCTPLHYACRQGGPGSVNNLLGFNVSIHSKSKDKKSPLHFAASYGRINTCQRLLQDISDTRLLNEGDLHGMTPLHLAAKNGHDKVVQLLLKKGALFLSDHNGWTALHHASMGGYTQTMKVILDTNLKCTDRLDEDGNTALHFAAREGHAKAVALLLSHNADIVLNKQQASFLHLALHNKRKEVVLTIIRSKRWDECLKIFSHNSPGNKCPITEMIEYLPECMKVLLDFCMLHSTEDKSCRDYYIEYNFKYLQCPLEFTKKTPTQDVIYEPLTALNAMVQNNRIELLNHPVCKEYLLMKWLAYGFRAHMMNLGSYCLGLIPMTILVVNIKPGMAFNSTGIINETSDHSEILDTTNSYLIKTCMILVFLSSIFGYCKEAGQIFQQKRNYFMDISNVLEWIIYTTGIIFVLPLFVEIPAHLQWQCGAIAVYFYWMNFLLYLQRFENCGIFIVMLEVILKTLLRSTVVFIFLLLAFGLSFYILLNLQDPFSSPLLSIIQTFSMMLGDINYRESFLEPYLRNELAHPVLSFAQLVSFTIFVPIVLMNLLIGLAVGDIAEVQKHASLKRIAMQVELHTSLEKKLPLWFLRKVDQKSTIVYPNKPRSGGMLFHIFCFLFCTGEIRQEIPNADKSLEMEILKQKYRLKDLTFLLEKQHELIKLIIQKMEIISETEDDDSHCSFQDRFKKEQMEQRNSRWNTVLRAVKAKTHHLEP
T3 sequence (Q9HBA0 whole entry): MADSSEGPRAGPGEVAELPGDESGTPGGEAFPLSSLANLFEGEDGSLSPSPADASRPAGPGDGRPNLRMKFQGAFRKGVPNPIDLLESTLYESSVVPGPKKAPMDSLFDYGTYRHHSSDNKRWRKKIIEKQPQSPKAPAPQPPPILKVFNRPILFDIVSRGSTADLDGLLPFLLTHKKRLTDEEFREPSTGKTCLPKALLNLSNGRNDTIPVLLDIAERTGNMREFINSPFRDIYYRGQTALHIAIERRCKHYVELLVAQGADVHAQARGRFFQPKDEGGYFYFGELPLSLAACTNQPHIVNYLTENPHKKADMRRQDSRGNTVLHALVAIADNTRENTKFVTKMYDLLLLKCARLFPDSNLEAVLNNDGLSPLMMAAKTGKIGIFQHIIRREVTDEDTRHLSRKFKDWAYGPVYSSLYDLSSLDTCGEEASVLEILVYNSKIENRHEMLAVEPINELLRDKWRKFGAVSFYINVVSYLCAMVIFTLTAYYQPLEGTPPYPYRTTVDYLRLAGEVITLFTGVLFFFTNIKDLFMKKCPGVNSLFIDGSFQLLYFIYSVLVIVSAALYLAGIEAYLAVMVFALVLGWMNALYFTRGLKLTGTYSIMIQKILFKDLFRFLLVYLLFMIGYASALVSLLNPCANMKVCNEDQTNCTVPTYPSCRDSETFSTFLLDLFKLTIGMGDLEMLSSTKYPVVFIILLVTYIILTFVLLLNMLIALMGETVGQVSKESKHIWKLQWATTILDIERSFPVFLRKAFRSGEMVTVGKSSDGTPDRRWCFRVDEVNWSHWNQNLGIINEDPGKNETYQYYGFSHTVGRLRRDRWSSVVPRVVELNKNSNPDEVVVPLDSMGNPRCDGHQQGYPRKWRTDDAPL
T1 sequence (Q8NER1 whole entry): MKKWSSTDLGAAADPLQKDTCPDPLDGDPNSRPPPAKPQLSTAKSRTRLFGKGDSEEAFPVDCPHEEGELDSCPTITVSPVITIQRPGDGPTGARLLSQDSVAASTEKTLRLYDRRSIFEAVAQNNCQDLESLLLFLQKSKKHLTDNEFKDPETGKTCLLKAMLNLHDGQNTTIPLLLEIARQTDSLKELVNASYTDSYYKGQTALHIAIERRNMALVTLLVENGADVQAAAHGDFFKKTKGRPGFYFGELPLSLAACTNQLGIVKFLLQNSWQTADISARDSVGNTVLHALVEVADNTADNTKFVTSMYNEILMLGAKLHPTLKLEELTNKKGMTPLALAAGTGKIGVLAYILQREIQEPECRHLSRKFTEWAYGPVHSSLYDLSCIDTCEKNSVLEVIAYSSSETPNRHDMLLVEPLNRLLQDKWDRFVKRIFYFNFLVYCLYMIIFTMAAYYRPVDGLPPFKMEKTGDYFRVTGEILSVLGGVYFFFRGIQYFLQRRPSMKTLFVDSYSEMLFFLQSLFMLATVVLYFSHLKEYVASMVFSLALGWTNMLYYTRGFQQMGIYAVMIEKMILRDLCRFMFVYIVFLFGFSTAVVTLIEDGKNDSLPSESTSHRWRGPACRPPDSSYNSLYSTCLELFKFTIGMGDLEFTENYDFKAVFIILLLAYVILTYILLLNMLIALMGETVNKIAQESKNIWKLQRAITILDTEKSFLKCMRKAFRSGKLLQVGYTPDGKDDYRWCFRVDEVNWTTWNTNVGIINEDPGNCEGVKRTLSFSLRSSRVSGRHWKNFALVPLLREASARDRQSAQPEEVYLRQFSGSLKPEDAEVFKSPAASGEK

CCCCc1oc2ccccc2c1C(=O)c1cc(I)c(OCCN(CC)CC)c(I)c1 [amiodarone, reference compound]
CMs' beating rate [1]: significantly decreased

COc1cc(O)cc(O)c1C(=O)/C=C/c1ccccc1 [cardamonin]
Inhibition of calcium influx in HEK293/TRPV1 cells (TRPV1 channel; 90 μΜ, 30 μΜ and 10 μΜ, pre-treated 10 min, 1 mM 2APB, 37 °C): failed to inhibit calcium influx
IC50 (hTRPA1 cation channel [2]): 0.454 µM
Inhibition of CA induced HEK293/TRPA1 activation (screen) (hTRPA1 cation channel [2]; 10 μM compound, 90 μM cinnamaldehyde): significantly inhibited
Blockage of TRPA1 activity (hTRPA1 cation channel [2]; at 90 μM compound): Full blockage
Activation of TRPA1 by compound alone (hTRPA1 cation channel [2]; without agonist): could not activate TRPA1 alone
Amplitude profile of CMs [1]: in accordance with vehicle control
CMs' beating pattern (real-time beating impedance) [1]: did not induce dramatic alteration
CMs' beating rate [1]: not
Cell index (CMs cell number and cell viability) [1]: did not significantly decrease
Inhibition of TRPV4 calcium signal (TRPV4 ion channel; 90 μM, 30 μM and 10 μM prior to 83 nM GSK1016790A): No detectable inhibiting effect
Cytotoxicity in HEK293 cells (HEK293 cells; 90 μΜ (top concentration)): slight cell injury
Cytotoxicity in HEK293 cells (HEK293 cells; within 30 μΜ, p > 0.05): no detectable cytotoxicity

Cl.Cl.Cl.Cl.Cl.Cl.N.N.N.N.N.N.N.N.N.N.N.N.N.N.[O-2].[O-2].[Ru+3].[Ru+3].[Ru+4] [ruthenium red, reference compound]
IC50 (TRPV1 channel; HEK293/TRPV1, 1 mM 2APB stimulation, read-out: IC50, inhibition of TRPV1 activation): 207 µM
IC50 (TRPV4 ion channel; HEK293/TRPV4, added 10 min prior to 83 nM GSK1016790A, 24 °C, read-out: IC50, blocking TRPV4 activation): 29.8 µM

CC(C)C[C@H](NC(=O)c1cc2ccccc2s1)C(=O)N1CCN(C(=O)[C@H](CO)NS(=O)(=O)c2ccc(Cl)cc2Cl)CC1 [GSK1016790A]
EC50 (TRPV4 ion channel): 0.0092 µM

O=C/C=C/c1ccccc1 [cinnamaldehyde]
EC80 of TRPA1 agonist (hTRPA1 cation channel [3]): 90 μΜ
